From paper PMC5214803 (Scientific Reports, 2017)

Molecular target: T1, Apc holoenzyme (Apc core complex plus Apcε) (Aromatoleum aromaticum, UniProt Q5P5G2+Q5P5G4)
T1 construct: gene apc3
Conditions: ATP sites in Apcα and Apcα′ inferred from structure

T1 sequence (Q5P5G4 2-732): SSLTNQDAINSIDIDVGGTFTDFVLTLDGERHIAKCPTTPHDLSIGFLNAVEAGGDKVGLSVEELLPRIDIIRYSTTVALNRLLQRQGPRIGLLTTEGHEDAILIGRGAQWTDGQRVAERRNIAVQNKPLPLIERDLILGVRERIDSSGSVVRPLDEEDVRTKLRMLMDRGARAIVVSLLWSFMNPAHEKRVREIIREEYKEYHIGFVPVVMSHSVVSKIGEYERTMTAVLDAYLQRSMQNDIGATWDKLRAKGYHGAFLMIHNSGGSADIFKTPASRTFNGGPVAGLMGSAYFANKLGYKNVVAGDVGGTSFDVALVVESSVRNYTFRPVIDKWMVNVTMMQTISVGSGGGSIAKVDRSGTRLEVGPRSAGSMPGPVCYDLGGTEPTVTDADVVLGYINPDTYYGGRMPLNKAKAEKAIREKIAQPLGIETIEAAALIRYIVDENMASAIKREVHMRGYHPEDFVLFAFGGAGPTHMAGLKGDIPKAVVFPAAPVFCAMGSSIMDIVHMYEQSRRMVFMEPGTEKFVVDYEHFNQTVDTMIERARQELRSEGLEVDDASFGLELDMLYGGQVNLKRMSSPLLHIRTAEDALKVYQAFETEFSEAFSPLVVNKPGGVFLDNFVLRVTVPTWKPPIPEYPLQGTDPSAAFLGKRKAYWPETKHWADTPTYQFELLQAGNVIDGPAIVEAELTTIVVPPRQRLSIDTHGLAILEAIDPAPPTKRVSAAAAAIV
T1 sequence (Q5P5G2 whole entry): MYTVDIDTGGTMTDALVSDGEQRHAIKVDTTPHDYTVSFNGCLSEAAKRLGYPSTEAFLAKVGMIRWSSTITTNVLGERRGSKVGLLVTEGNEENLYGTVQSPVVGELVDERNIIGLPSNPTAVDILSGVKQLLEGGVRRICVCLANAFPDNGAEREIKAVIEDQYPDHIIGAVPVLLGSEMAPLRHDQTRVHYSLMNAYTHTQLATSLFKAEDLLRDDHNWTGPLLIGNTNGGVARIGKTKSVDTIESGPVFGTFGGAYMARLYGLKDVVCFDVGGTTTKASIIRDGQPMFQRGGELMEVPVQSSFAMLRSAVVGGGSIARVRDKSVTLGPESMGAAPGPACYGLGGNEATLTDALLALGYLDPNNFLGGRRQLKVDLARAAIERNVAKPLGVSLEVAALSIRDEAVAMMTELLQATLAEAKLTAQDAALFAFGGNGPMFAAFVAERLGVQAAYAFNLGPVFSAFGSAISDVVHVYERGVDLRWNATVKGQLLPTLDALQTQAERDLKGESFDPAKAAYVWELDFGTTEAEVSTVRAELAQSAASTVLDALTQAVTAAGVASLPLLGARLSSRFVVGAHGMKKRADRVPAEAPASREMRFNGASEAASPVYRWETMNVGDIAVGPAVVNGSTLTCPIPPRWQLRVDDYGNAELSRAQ
T1 sequence (Q5P5G5 2-684 partner): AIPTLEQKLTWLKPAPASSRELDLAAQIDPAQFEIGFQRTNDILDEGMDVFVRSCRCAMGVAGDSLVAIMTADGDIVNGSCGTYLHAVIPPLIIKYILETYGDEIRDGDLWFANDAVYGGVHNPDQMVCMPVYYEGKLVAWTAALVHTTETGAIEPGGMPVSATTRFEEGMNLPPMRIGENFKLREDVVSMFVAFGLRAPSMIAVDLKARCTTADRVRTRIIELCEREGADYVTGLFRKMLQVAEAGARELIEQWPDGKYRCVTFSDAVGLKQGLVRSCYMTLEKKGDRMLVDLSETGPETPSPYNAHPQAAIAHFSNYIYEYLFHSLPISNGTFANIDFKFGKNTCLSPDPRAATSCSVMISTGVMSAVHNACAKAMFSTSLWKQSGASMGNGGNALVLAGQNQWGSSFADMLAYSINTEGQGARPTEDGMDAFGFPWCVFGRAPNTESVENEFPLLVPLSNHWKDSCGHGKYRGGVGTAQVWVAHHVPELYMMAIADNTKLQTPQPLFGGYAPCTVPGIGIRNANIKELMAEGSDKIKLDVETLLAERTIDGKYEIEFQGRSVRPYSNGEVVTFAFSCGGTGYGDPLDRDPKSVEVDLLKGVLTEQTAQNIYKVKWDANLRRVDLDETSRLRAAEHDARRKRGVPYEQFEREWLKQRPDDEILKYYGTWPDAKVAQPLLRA
T1 sequence (Q5P5G3 whole entry partner): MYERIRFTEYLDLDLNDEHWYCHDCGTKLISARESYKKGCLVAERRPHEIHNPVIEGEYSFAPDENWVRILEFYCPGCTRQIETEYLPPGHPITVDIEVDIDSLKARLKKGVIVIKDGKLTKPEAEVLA
T1 sequence (Q5P5G6 whole entry partner): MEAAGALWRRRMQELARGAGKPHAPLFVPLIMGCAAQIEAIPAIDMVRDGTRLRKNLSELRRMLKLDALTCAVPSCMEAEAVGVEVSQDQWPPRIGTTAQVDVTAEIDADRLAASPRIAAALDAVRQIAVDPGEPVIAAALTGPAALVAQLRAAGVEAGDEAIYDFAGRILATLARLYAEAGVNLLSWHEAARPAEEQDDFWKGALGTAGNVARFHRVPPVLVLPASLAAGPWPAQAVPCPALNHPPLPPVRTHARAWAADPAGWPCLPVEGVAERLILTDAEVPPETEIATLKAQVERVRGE

SMILES: Nc1ncnc2c1ncn2[C@@H]1O[C@H](COP(=O)(O)OP(=O)(O)OP(=O)(O)O)[C@@H](O)[C@H]1O [ATP]
- ATPase activity assay: confirmed by determination of the ATPase activity and carboxylation of acetophenone
